The values that follow come from patent US8513270B2, “Substituted heterocycles as Janus kinase inhibitors” (Incyte Corporation, priority 2006, dated 2013).

For assay [1], the target named is T1, human JAK2 (a.a. 828-1132) (Homo sapiens, UniProt O60674).
T1 construct: JAK2 (a.a. 828-1132); His tag (N); made in house; host or cells: insect cells (baculovirus)
Kind of assay: In vitro JAK kinase assay (HTRF), JAK2. The format is biochemical. The settings on record: JAK2, 30 μM ATP; read-out: EXAMPLE A HTS-JAK2 HTRF-2 IC50. An outline of the steps: (§1)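 His-tagged catalytic domains from baculovirus-infected insect cells phosphorylated 500 nM biotinylated peptide in 50 mM Tris pH 7.8, 100 mM NaCl, 5 mM DTT, 0.01% BSA for 1 h at room temperature. ATP was 90 μM (JAK1), 30 μM (JAK2), 3 μM (JAK3). Detection used Eu-Py20/SA-APC; IC50s were derived.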

The subject of assay [2] is JAK2_INA61 (cancer cell line dependent on cytokines and JAK/STAT signal transduction). The assay can be described thus: Cellular assay: viability of cytokine-dependent cancer cell line (CellTiter-Glo). In kind it is cell-based. The conditions noted are these: 72 hours, read-out: EXAMPLE B JAK2_INA61 IC50. Here is the method:
One or more compounds herein were tested for inhibitory activity of JAK targets according to at least one of the following cellular assays.
Compounds were added to the cells in DMSO/media (final concentration 0.2% DMSO) and incubated for 72 hours at 37° C., 5% CO2. The effect of compound on cell viability was assessed using the CellTiter-Glo Luminescent Cell Viability Assay (Promega) followed by TopCount (Perkin Elmer, Boston, Mass.) quantitation. Potential off-target effects of compounds were measured in parallel using a non-JAK driven cell line with the same assay readout. […] All experiments were performed in duplicate.

Assay [3] deals with T2, human JAK1 (a.a. 837-1142) (Homo sapiens, UniProt P23458).
T2 construct: human JAK1 (a.a. 837-1142); His tag (N); made in house; host or cells: insect cells (baculovirus)
T2 sequence (P23458 849-1154): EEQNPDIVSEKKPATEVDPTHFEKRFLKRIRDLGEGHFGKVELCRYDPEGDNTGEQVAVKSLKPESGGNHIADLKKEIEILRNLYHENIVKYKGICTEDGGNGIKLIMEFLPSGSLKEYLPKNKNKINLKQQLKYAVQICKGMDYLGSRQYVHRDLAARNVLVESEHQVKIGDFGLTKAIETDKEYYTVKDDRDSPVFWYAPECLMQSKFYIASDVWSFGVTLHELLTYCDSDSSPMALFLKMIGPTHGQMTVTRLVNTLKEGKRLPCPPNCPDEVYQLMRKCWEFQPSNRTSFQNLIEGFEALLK
The assay can be described thus: In vitro JAK kinase assay (HTRF), JAK1. The settings on record: JAK1, 90 μM ATP; read-out: EXAMPLE A JAK2-JAK1 HTRF-2 IC50. In kind it is biochemical. The gist of the method: as §1

The target in assay [4] is T3, human JAK3 (a.a. 781-1124) (Homo sapiens, UniProt P52333).
T3 construct: JAK3 (a.a. 781-1124); His tag (N); made in house; host or cells: insect cells (baculovirus)
T3 sequence (P52333 781-1124): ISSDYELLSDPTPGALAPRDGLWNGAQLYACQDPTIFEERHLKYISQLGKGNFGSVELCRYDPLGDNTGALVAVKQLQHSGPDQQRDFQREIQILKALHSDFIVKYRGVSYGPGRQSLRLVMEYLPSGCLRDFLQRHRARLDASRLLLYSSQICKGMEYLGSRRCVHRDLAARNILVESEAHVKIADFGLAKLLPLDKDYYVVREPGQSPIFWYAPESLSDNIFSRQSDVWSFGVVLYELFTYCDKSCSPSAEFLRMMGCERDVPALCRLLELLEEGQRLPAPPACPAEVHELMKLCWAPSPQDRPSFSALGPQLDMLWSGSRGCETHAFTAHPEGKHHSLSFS
Kind of assay: In vitro JAK kinase assay (HTRF), JAK3. The format is biochemical. The conditions noted are these: JAK3, 3 μM ATP; read-out: EXAMPLE A JAK2-JAK3 HTRF-2 IC50. An outline of the steps:
as §1

The target in assay [5] is TF1-BCRABL1 cells (Homo sapiens, UniProt P00519). Kind of assay: ABL1 cell based assay: viability of ABL1-dependent cell line (CellTiter-Glo). The settings on record: 72 hours, cell viability; read-out: EXAMPLE F JAK2-TF1-BCRABL1 IC50. An outline of the steps:
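ABL1-dependent cells plated at 3000 per well in RPMI 1640 with 10% FBS and exposed to compounds for 72 h at 37° C, 5% CO2, 0.2% DMSO final. Viability read by CellTiter-Glo luminescence; duplicate or more.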

Structures are written as SMILES. Counter-ions that a name gives are not always drawn.

T1 sequence (O60674 828-1132): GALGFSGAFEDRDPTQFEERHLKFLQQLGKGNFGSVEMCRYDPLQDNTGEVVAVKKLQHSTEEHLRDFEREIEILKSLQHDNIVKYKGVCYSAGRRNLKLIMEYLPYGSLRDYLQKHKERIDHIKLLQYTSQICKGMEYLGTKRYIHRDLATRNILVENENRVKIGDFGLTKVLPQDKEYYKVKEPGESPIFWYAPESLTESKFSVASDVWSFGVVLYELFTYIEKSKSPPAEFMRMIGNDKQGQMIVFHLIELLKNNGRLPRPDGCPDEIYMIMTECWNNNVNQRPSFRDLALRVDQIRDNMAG
TF1-BCRABL1 cells, sequence (P00519 whole entry, change not shown): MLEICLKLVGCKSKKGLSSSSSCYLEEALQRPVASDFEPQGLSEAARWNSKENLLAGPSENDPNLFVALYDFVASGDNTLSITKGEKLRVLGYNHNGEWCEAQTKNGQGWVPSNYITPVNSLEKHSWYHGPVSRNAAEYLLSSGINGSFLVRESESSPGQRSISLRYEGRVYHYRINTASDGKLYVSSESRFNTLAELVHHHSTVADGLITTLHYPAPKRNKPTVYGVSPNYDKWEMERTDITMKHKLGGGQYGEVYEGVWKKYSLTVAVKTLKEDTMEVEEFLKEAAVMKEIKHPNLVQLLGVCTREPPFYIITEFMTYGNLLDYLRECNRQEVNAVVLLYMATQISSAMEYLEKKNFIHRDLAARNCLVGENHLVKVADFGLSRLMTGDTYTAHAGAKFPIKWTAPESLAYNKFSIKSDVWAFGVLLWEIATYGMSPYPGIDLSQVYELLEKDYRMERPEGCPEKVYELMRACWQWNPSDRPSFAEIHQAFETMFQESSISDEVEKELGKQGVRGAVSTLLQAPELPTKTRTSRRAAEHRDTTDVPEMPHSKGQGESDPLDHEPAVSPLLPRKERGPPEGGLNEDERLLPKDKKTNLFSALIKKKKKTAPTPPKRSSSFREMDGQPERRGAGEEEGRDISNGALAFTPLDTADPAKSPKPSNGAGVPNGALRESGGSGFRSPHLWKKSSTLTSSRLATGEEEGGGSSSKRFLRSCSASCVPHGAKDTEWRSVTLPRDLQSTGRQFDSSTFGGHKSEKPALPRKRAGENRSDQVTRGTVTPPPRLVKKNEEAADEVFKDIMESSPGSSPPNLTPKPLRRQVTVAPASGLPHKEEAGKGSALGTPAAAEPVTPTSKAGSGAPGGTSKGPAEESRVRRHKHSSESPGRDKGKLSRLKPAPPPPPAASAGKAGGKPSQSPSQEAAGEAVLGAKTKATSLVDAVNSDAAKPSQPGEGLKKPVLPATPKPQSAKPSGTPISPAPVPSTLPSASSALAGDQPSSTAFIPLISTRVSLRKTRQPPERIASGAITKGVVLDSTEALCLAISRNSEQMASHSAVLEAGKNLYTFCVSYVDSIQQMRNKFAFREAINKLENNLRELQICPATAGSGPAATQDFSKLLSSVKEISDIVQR

As to `Cc1ccc(NC(=O)c2cccc(F)c2)cc1-c1ccc2[nH]c3ncncc3c2c1` [Example 44, 3-fluoro-N-[4-methyl-3-(9H-pyrimido[4,5-b]indol-6-yl)-phenyl]benzamide], the IC50 in assay [1] was above 1000 nM; in assay [2] it was above 1000 nM; in assay [3], at most 500 nM; in assay [4], at most 500 nM. In assay [5], the GI50 fell in the range of 500 to 1000 nM.

`Cc1ccc(NC(=O)c2cc(C(F)(F)F)ccc2C(F)(F)F)cc1-c1ccc2[nH]c3ncncc3c2c1` [Example 45, N-[4-methyl-3-(9H-pyrimido-[4,5-b]indol-6-yl)phenyl]-2,5-bis(trifluoromethyl)benzamide]: the IC50 in assay [1] is above 1000 nM; in assay [2], above 1000 nM; in assay [3], at most 500 nM; in assay [4], above 1000 nM. The GI50 in assay [5] was 500 to 1000 nM.

For the molecule `Cc1ccc(NC(=O)c2cc(C(F)(F)F)cc(Cl)c2F)cc1-c1ccc2[nH]c3ncncc3c2c1` [Example 46, 3-chloro-2-fluoro-N-[4-methyl-3-(9H-pyrimido[4,5-b]indol-6-yl)phenyl]-5-(trifluoromethyl)-benzamide], the half-inhibitory concentration (IC50) in assay [1] is at most 500 nM; in assay [2] it was above 1000 nM; in assay [3], at most 500 nM; in assay [4], above 1000 nM. The GI50 in assay [5] was at most 500 nM.

As for `Cc1ccc(NC(=O)Nc2cccc(C(F)(F)F)c2)cc1-c1ccc2c(c1)[nH]c1ncncc12` [Example 47, N-[4-Methyl-3-(9H-pyrimido[4,5-b]indol-7-yl)phenyl]-N′-[3-(trifluoromethyl)-phenyl]urea], the IC50 in assay [1] was 500 to 1000 nM; in assay [2] it was above 1000 nM; in assay [3] it was at most 500 nM; in assay [4] it was at most 500 nM. The GI50 in assay [5] was at most 500 nM.

`Cc1ccc(NC(=O)Nc2cccc(C(F)(F)F)c2)cc1-c1ccc2[nH]c3ncncc3c2c1` [Example 48, N-[4-Methyl-3-(9H-pyrimido[4,5-b]indol-6-yl)phenyl]-N′-[3-(trifluoromethyl)-phenyl]urea]: the IC50 in assay [1] is above 1000 nM; in assay [2] it was 500 to 1000 nM; in assay [3], at most 500 nM; in assay [4], 500 to 1000 nM. Besides, in assay [5], the GI50 is at most 500 nM.

With `N#Cc1ccc(C(=O)Nc2cccc(C(F)(F)F)c2)cc1-c1ccc2c(c1)[nH]c1ncncc12` [Example 51, 4-Cyano-3-(9H-pyrimido[4,5-b]indol-7-yl)-N-[3-(trifluoromethyl)phenyl]-benzamide], the IC50 in assay [1] is at most 500 nM; in assay [2] it was above 1000 nM; in assay [3] it was at most 500 nM; in assay [4] it was above 1000 nM. The GI50 in assay [5] was at most 500 nM.

For `Cc1cccc(NC(=O)c2ccc(C)c(-c3ccc4c(c3)[nH]c3ncncc34)c2)c1` [Example 53, 4-methyl-N-(3-methyl-phenyl)-3-(9H-pyrimido-[4,5-b]indol-7-yl)benzamide], the IC50 in assay [1] is at most 500 nM; in assay [2] it was 500 to 1000 nM; in assay [3], at most 500 nM; in assay [4], at most 500 nM. Also, the GI50 in assay [5] was at most 500 nM.

For `Cc1ccc(C(=O)Nc2cccc(OC(F)(F)F)c2)cc1-c1ccc2c(c1)[nH]c1ncncc12` [Example 54, 4-methyl-3-(9H-pyrimido-[4,5-b]indol-7-yl)-N-[3-(trifluoromethoxy)phenyl]-benzamide], the IC50 was at most 500 nM in assay [1], 500 to 1000 nM in assay [2], at most 500 nM in assay [3] and at most 500 nM in assay [4]. Besides, the GI50 in assay [5] is at most 500 nM.

On to `Cc1ccc(C(=O)NCc2cc(F)ccc2F)cc1-c1ccc2c(c1)[nH]c1ncncc12` [Example 55, N-(2,5-difluorobenzyl)-4-methyl-3-(9H-pyrimido-[4,5-b]indol-7-yl)benzamide], for which the IC50 in assay [1] was above 1000 nM; in assay [2], 500 to 1000 nM; in assay [3], above 1000 nM; in assay [4] it was at most 500 nM. Moreover, the GI50 in assay [5] lay in the range of 500 to 1000 nM.

`Cc1ccc(C(=O)NCc2cccc(C(F)(F)F)c2)cc1-c1ccc2c(c1)[nH]c1ncncc12` [Example 56, 4-methyl-3-(9H-pyrimido-[4,5-b]indol-7-yl)-N-[3-(trifluoromethyl)benzyl]-benzamide]: the 50% inhibitory concentration (IC50) was above 1000 nM in assay [1], above 1000 nM in assay [2], above 1000 nM in assay [3] and at most 500 nM in assay [4]. Besides, the GI50 in assay [5] is at most 500 nM.

For the molecule `Cc1cnc(NC(=O)c2ccc(C)c(-c3ccc4c(c3)[nH]c3ncncc34)c2)s1` [Example 57, 4-methyl-N-(5-methyl-1,3-thiazol-2-yl)-3-(9H-pyrimido-[4,5-b]indol-7-yl)benzamide], the IC50 is above 1000 nM in assay [1], above 1000 nM in assay [2], at most 500 nM in assay [3] and above 1000 nM in assay [4]. Moreover, the GI50 in assay [5] was at most 500 nM.

For `O=C(Nc1cccc(C(F)(F)F)c1)c1cccc(-c2ccc3c(c2)[nH]c2ncncc23)c1` [Example 59, 3-(9H-pyrimido[4,5-b]indol-7-yl)-N-[3-(trifluoromethyl)-phenyl]benzamide], the IC50 in assay [1] is at most 500 nM; in assay [2] it was above 1000 nM; in assay [3], at most 500 nM; in assay [4], above 1000 nM. The GI50 in assay [5] was 500 to 1000 nM.

Take `COc1ccc(C(=O)Nc2cccc(C(F)(F)F)c2)cc1-c1ccc2c(c1)[nH]c1ncncc12` [Example 60, 4-methoxy-3-(9H-pyrimido-[4,5-b]indol-7-yl)-N-[3-(trifluoromethyl)phenyl]-benzamide]: the IC50 in assay [1] was at most 500 nM; in assay [2], above 1000 nM; in assay [3] it was at most 500 nM; in assay [4] it was 500 to 1000 nM. Moreover, the GI50 in assay [5] is at most 500 nM.

In the case of `Cc1ccc(C(=O)Nc2nnc(C(F)(F)F)s2)cc1-c1ccc2c(c1)[nH]c1ncncc12` [Example 61, 4-methyl-3-(9H-pyrimido-[4,5-b]indol-7-yl)-N-[5-(trifluoromethyl)-1,3,4-thiadiazol-2-yl]benzamide], the IC50 is above 1000 nM in assay [1], above 1000 nM in assay [2], above 1000 nM in assay [3] and at most 500 nM in assay [4]. Further, the GI50 in assay [5] is 500 to 1000 nM.

As to `Cc1cn(-c2cc(NC(=O)c3ccc(C)c(-c4ccc5c(c4)[nH]c4ncncc45)c3)cc(C(F)(F)F)c2)cn1` [Example 62, 4-methyl-N-[3-(4-methyl-1H-imidazol-1-yl)-5-(trifluoro-methyl)phenyl]-3-(9H-pyrimido[4,5-b]indol-7-yl)-benzamide], the concentration for half-maximal inhibition (IC50) in assay [1] is at most 500 nM; in assay [2] it was 500 to 1000 nM; in assay [3], at most 500 nM; in assay [4] it was at most 500 nM. In addition, the GI50 in assay [5] is at most 500 nM.

As to `Cc1ccc(C(=O)N[C@H](C)c2ccccc2)cc1-c1ccc2c(c1)[nH]c1ncncc12` [Example 63, 4-methyl-N-[(1R)-1-phenylethyl]-3-(9H-pyrimido[4,5-b]indol-7-yl)benzamide], the IC50 in assay [1] was above 1000 nM; in assay [2], above 1000 nM; in assay [3], above 1000 nM; in assay [4] it was 500 to 1000 nM. In assay [5], the GI50 was in the range of 500 to 1000 nM.

As for `Cc1ccc(C(=O)N[C@@H](C)c2ccccc2)cc1-c1ccc2c(c1)[nH]c1ncncc12` [Example 64, 4-methyl-N-[(1S)-1-phenylethyl]-3-(9H-pyrimido[4,5-b]indol-7-yl)benzamide], the IC50 was above 1000 nM in assay [1], above 1000 nM in assay [2], above 1000 nM in assay [3] and at most 500 nM in assay [4]. Further, the GI50 in assay [5] was 500 to 1000 nM.

In the case of `Cc1ccc(C(=O)Nc2cccc(S(F)(F)(F)(F)F)c2)cc1-c1ccc2c(c1)[nH]c1ncncc12` [Example 65, 4-methyl-N-[3-(pentafluoro-λ(6)-sulfanyl)phenyl]-3-(9H-pyrimido[4,5-b]indol-7-yl)-benzamide], the IC50 was at most 500 nM in assay [1], 500 to 1000 nM in assay [2], at most 500 nM in assay [3] and at most 500 nM in assay [4]. For the same molecule, the GI50 in assay [5] was at most 500 nM.

Take `Cc1ccc(C(=O)Nc2cccc(C(F)(F)F)c2)cc1-c1ccc2c(c1)[nH]c1ncccc12` [Example 68, 4-Methyl-3-(9H-pyrido[2,3-b]indol-7-yl)-N-[3-(trifluoromethyl)phenyl]benzamide, trifluoroacetate salt]: the concentration for half-maximal inhibition (IC50) in assay [1] was at most 500 nM; in assay [2], above 1000 nM; in assay [3], at most 500 nM; in assay [4], at most 500 nM. For the same molecule, the GI50 in assay [5] was at most 500 nM.
